Results reported in US9789191B2, “Aqueous drug delivery system” (SOLIXA TECHNOLOGIES, INC., priority 2010, dated 2017).

Assay: Comparative accelerated storage study of ASA at 45° C. for 3 weeks (HPLC)
Assay type: physicochemical
Details: in distilled water, 143 mg ASA in 8 oz
Experimental: Accelerated storage studies were conducted to examine the stability of ASA in distilled water, ASA in acidified (1% citric acid) distilled water, and of a molecular inclusion complex of ASA-βCD (in distilled water). Duplicate samples of each treatment were made containing 143 mg of ASA in 8 oz of distilled water. For the treatment containing the ASA-βCD complex, a 2:1 ratio of βCD to ASA was used as described in part I of the prototype formulation procedure outlined above. The treatments were stored at 45° C. for 3 weeks to determine the rate of hydrolysis of ASA to its breakdown product salicylic acid. Analysis of degradation products was performed using an Agilent Technologies 1200 series HPLC with a PDA (photodiode array) detector, incorporating a Phenominex C18-2 column (25 cm×0.39 cm i.d., 5 μm particle size). Solvent system A) H2O, Acetonitrile, Phosphoric Acid (95.45:4.5:0.05), and B) H2O, Acetonitrile, Phosphoric Acid (49.95:50:0.05). Solvent B ramped from 10%-80% over 20 minutes. Stability was verified using peak area, which was used to determine the overall percentage of breakdown of ASA to salicylic acid. […] The sensory profile of the βCD-ASA solution was evaluated.

breakdown of ASA to salicylic acid: nearly quantitative breakdown
SMILES: CC(=O)Oc1ccccc1C(=O)O [ASA, acetylsalicylic acid]
